15 compounds from ChEMBL document CHEMBL3785081 (J Med Chem, 2016) can be followed below.

Data set [1] is described as follows: Lipophilicity, log D of the compound at pH 7.4. The format is physicochemical. The conditions noted are these: buffer.
The subject of a further data set is Liver microsome. Kind of data set: Intrinsic clearance in human liver microsomes. The format is ADME. A general note: Microsomes from liver hold many membrane-bound enzymes, among them those of drug oxidation.

Each structure is given as a SMILES string.

The logD is lipophilicity at a set pH, counting ionised and neutral species. Low readings indicate a more hydrophilic compound, high ones a more lipophilic compound. `C=CC(=O)N1C[C@H](COc2nc(Nc3cnn(C)c3)nc3[nH]ccc23)[C@@H](C(F)(F)F)C1` registered a logD in data set [1] of 2.7. Also, the CLint in the data set with Liver microsome came to 26 µL/min/g.
Compound `C=CC(=O)N1C[C@H](COc2nc(Nc3cnn(C)c3)nc3[nH]cc(Cl)c23)[C@@H](O)C1` showed a logD in data set [1] of 2. The compound further came in with a CLint in the data set with Liver microsome of 12 µL/min/g.
Consider `C=CC(=O)Nc1cccc(Oc2nc(Nc3ccn(C)n3)nc3[nH]ccc23)c1`, for which the logD in data set [1] is 3. The same compound gave a CLint in the data set on Liver microsome of 11 µL/min/g.
Taken in the same sequence, the figures for `C=CC(=O)N1C[C@H](COC)[C@@H](COc2nc(Nc3cnn(C)c3)nc3[nH]cc(Cl)c23)C1` were 2.9 and 23 µL/min/g.
`C=CC(=O)N1C[C@H](CO)[C@@H](COc2nc(Nc3cnn(C)c3)nc3[nH]cc(Cl)c23)C1`: in data set [1], the logD turned out to be 2.3. In the data set with Liver microsome, this compound registered a CLint of 13 µL/min/g.
Taken in the same sequence, the figures for `C=CC(=O)N1C[C@H](COc2nc(Nc3cnn(C)c3)nc3[nH]cc(Cl)c23)[C@@H](C(F)(F)F)C1` were 3 and 37 µL/min/g.
In data set [1], `C#CCCn1cc(Nc2nc(OC[C@H]3CN(C(=O)C=C)C[C@@H]3OC)c3c(Cl)c[nH]c3n2)cn1` displayed a pH-dependent lipophilicity (logD) of 3.
For the compound `C=CC(=O)N1CC[C@@H](COc2nc(Nc3cnn(C)c3)nc3[nH]cc(Cl)c23)C1`, the logD in data set [1] was found to be 2.91. In addition, the CLint in the data set with Liver microsome was 45 µL/min/g.
On the same counts, the results for `C=CC(=O)Nc1cccc(Oc2nc(Nc3cnn(C)c3)nc3[nH]ccc23)c1` are 3.2 and 66 µL/min/g.
Taken in the same sequence, the figures for `C=CC(=O)N1C[C@@H](COc2nc(Nc3cnn(C)c3)nc3[nH]cc(Cl)c23)[C@H](OC)C1` were 2.4 and 24 µL/min/g.
On the same counts, the results for `C=CC(=O)N1C[C@H](COc2nc(Nc3cnn(C)c3)nc3[nH]cc(Cl)c23)[C@@H](F)C1` are 2.7 and 28 µL/min/g.
With `C=CC(=O)N1CC[C@@H](COc2nc(Nc3cnn(C)c3)nc3[nH]ccc23)C1`, in data set [1], the logD is 2.1. For the same compound, in the data set on Liver microsome, the CLint turned out to be 56 µL/min/g.
`C#CCOc1cc2ncnc(Nc3ccc(F)c(Cl)c3)c2cc1NC(=O)C=C` had a logD in data set [1] of 4.
Turning to `C=CC(=O)Nc1cccc(Oc2nc(Nc3ccc(N4CCN(C)CC4)cc3)nc3[nH]ccc23)c1`, the logD in data set [1] is 2.7. The compound also registered a CLint with Liver microsome of 20 µL/min/g.
Taken in the same sequence, the figures for `C=CC(=O)N1C[C@H](COc2nc(Nc3cnn(C)c3)nc3[nH]cc(Cl)c23)[C@@H](OC)C1` [PF-06459988] were 2.5 and 18 µL/min/g.
